This note sets out measurements from US20220008437A1, “Use of prostaglandin E1 methyl ester in manufacture of vasodilator” (XI'AN LIBANG ZHAOXIN BIOTECHNOLOGY CO., LTD., priority 2018, published 2022).

Where two headings read alike, the source gives them in different places.

Series [1] deals with T1, hDP1 (Homo sapiens, UniProt Q13258).
T1 sequence (Q13258 1-359): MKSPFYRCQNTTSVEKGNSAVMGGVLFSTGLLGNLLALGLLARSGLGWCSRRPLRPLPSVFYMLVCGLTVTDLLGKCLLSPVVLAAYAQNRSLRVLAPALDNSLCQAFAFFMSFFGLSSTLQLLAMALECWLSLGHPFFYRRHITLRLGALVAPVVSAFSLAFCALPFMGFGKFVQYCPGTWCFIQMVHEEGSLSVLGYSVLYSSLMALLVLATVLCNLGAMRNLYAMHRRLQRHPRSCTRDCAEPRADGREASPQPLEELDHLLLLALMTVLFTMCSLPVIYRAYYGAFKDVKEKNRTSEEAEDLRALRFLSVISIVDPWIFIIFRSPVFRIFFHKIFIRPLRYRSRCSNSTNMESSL
As to the kind of experiment: radioligand ([3H] Prostaglandin D2) competitive receptor binding assay, DP receptor affinity in vitro. Conditions: Test Concentration 100 nM; [3H] PGD2 radioligand; read-out: Inhibition rate. The source says:
Affinity Test of DP Receptor Target In Vitro.
The radioligand ([3H] Prostaglandin D2 (PGD2)) competitive receptor binding assay was used to evaluate the affinity of the test compound with the DP receptor.

The test system of series [2] is ADP-induced platelet aggregation. As to the kind of experiment: anti-platelet aggregation test in vitro (platelet-rich plasma, ADP inducer). Type of series: cell-based, SD rats. The following applies: for inhibition at 100 µM: Rattus norvegicus, Platelet, 10 min, after 10 minutes of incubation, read-out: inhibition rate on ADP-induced platelet aggregation; for onset of anti-platelet aggregation effect after addition to PRP: incubation 0 min onward, FIG. 1. How it is done: The Effect of the Prostaglandin E1 Methyl Ester of the Disclosure in the Anti-Platelet Aggregation Test In Vitro.
When healthy adult SD rats were anesthetized by intraperitoneal injection of 10% chloral hydrate, fresh whole blood was collected from the abdominal aorta and added to a centrifuge tube anticoagulated with 3.8% sodium citrate solution, and centrifuged at 900 rpm for 10 minutes to remove the upper platelet-rich plasma (PRP) for use. The tube having PRP removed was further centrifuged at 4000 rpm for 10 minutes, and the upper clarified plasma (PPP) was removed for use. In the experiment, Techlink model LBY-NJ4 4-channel platelet aggregator was used to determine the anticoagulant efficacy of each compound.
Into a sample cup containing 300 μL of PRP, 2 μL of 100 μM prostaglandin E1, prostaglandin E1 methyl ester of example 1, Compound 2 of Example 2 and methanol (solvent) were first added. After incubated for different periods (0, 1, 2, 4, 7, 10, 15 min), 20 μL of aggregation inducer 180 μM ADP solution was added. The aggregation rate of each sample was measured, and the inhibitory rate of the compound on ADP-induced platelet aggregation was calculated.
Inhibition rate %=(solvent aggregation rate−compound aggregation rate)/solvent aggregation rate×100%

The subject of series [3] is isolated rabbit blood vessels. As to the kind of experiment: vasodilation test in vitro, isolated aortic ring specimens. The following applies: isolated rabbit thoracic aortic rings, cumulative addition 0.05-25.6 nM, read-out: diastolic efficacy EC50. Type of series: cell-based, New Zealand white rabbits. The source says: The Effect of the Prostaglandin E1 Methyl Ester of the Disclosure in the Vasodilation Test In Vitro
In the experiment, rabbits were selected to prepare isolated aortic ring specimens: New Zealand white rabbits, male, weighing (2.5±0.3) kg. The rabbit was stunned with a blunt instrument, fixed on the rabbit dissecting table, and the thoracic aorta was quickly separated, and placed in a petri dish filled with saturated Kerbs solution (containing NaCl 6.9 g, KCl 0.35 g, MgSO4.7H2O 0.29 g, KH2PO4 0.16 g, NaHCO32.1 g, CaCl2) 0.28 g, glucose 2 g per 1000 mL) at 37° C. and continuously introduced with mixed gas (95% O2, 5% CO2). The remaining blood in the blood vessel was squeezed out, and the peripheral fat and connective tissue were carefully peeled off, and it was cut into 0.5 cm long arterial rings for use. […]
BL-420S biological function experiment system (Chengdu Techman Technology) was used to record the variation of vascular ring tension. After the vascular ring contraction was stable, prostaglandin E1 and the compounds of the Examples were accumulatively added to successively increase the final mass concentration of prostaglandin E1 in the bath tube to 0.05, 0.1, 0.2, 0.4, 0.8, 1.6, 3.2, 6.4, 12.8, 25.6 nM, and the diastolic efficacies of the vascular ring were recorded.

For series [4], the system named is human umbilical vein endothelial cells (HUVEC). As to the kind of experiment: HUVEC proliferation, MTT detection. The following applies: 1-100 nM, incubated 24 hours, compared with unmedicated wells. Type of series: cell-based. How it is done: Frozen human umbilical vein endothelial cells (HUVEC) were resuscitated and placed in low-sugar DMEM medium with 10% (V/V) FBS, and 100 U/L penicillin and 0.1 g/L streptomycin were added. It was cultured artificially in an environment of 5% CO2 and 95% air at a temperature of 37° C. A fresh medium was replaced every three days. When the cell density reached 70-80%, the digestion solution (0.25% trypsin/0.02EDTA) was used to harvest the cells. After the cells were resuspended, they were seeded in a 96-well plate with a density of 5×10^3 per well. After 1 day of culture, 1-100 nM of prostaglandin methyl ester was added and incubated for 24 hours for MTT detection.

For series [5], the system named is mouse scleroderma model. As to the kind of experiment: mouse scleroderma model (bleomycin subcutaneously). Type of series: in vivo, Balb/c mice. Conditions: for Skin thickness / Collagen content: osmotic pump 28 days; for Skin thickness: inferior vena cava; for Collagen content: skin. As to the method:
Therapeutic Effect of Prostaglandin E1 Methyl Ester in Mouse Scleroderma Model In this experiment, 56 Balb/c mice weighing 22-25 g were randomly divided into 7 groups: normal group, model group, vehicle group, prostaglandin E1 high-dose group and prostaglandin E1 low-dose group, and prostaglandin E1 methyl ester high-dose group and prostaglandin E1 methyl ester low-dose group. Model preparation: the clothing hair on the central area of the mice was shaved, the normal group was injected with 0.1 ml PBS subcutaneously on the back, and the other groups were injected with 0.1 ml of 0.2 mg/ml bleomycin subcutaneously, once a day for three weeks. […] Prostaglandin E1 high and low-dose groups were loaded with 28 μg and 14 μg of drugs respectively; prostaglandin E1 methyl ester high and low-dose groups were also loaded with 28 μg and 14 μg of drugs respectively; solvent group was not loaded with drugs. […] The administration was started at the same time as the model was created. Index detection: After the administration, the animals were sacrificed, and skin and lung sections of the injection site were made, and HE stained. The histological changes were observed, and the skin (dermis) thickness was measured; and the photoelectric colorimetry was used to determine the content of hydroxyproline and protein in the skin to infer the content of collagen.

Series [6] in a line: distribution in rat skin tissue (total radiation value). Conditions: 200 μg [3H]-labelled drug via osmotic pump over 3 days, inferior vena cava. As to the method: Distribution of Prostaglandin E1 Methyl Ester in Rat Skin Tissue
In this experiment, 12 male SD rats weighing 250-280 g were randomly divided into two groups (n=6): prostaglandin E1 group and prostaglandin E1 methyl ester group. Osmotic pumps (model 1003D, ALZA Corporation, Canada) containing 100 μl of drug in DMSO were used. The drug was released at a constant rate, and the drug release cycle was 3 days. They were loaded with 200 μg of [^3H] prostaglandin E1 and [^3H] prostaglandin E1 methyl ester respectively. […] After the administration, the animals were sacrificed, skin tissues were taken (the same position for each animal), weighed, and the total radiation value was measured.

[7] abbreviates: 2 μL of 100 μM compound in 300 μL PRP.

As for `CCCCCC(O)/C=C/C1C(O)CC(=O)C1CCCCCCC(=O)OC` (stereo not drawn) [prostaglandin E1 methyl ester], in series [1], the inhibition (commonly the relative decrease from the control value, in per cent) at 0.1 µM was determined as 78%. Moreover, in series [2] (setting [7]), the inhibition at 100 µM came out at 43.7%. In series [2] (compared with prostaglandin E1), the “duration of anticoagulant effect relative to prostaglandin E1” value is 2 times. In series [2], the “onset of anti-platelet aggregation effect after addition to PRP” value (shortened to “onset”) was “take effect immediately”. Besides, the EC50 (usually the concentration at which the effect is half-maximal) in series [3] (Oryctolagus cuniculus) stood at 1.09 nM. Also, the “proliferation of vascular endothelial cells” value in series [4] was “significant effect of promoting the proliferation of vascular endothelial cells”. Further, the “lung tissue histology (alveolar septum thickening, inflammatory cell infiltration)” value in series [5] (HE stained lung sections, compared with prostaglandin E1 group) was “slightly better than the prostaglandin E1 group”. In series [5] (high-dose 1 ug/day), this molecule had a Skin thickness of 21.35 ± 2.11 μm and a Collagen content of 467.52 ± 141.08 mg/L. In series [5] (low-dose 0.5 ug/day), this molecule had a Skin thickness of 24.66 ± 2.54 μm and a Collagen content of 588.62 ± 127.41 mg/L.

Turning to `CCCCC[C@H](O)/C=C/[C@H]1[C@H](O)CC(=O)[C@@H]1CCCCCCC(=O)O` [prostaglandin E1, Prostaglandin E1], the “inhibition rate on ADP-induced platelet aggregation” value in series [2] (after 4 minutes of incubation, 2 μL of 100 μM compound in 300 μL PRP) is listed as 4.93%. Moreover, the “onset” value in series [2] is “take effect immediately”. In series [3], the half-maximal effective concentration (EC50) was determined as 9.77 nM. In series [5] (high-dose 1 ug/day), this molecule yielded a Skin thickness of 29.12 ± 2.46 μm and a Collagen content of 879.66 ± 128.92 mg/L. For the same molecule, in series [5] (low-dose 0.5 ug/day), the Skin thickness turned out to be 32.59 ± 3.03 μm and the Collagen content was 947.99 ± 214.86 mg/L. In addition, in series [6], the Skin tissue concentration was 45.1 ± 7.5 ng (radiatione quivalent)/g.

With `CCCCC[C@H](O)/C=C/[C@H]1[C@H](O)CC(=O)[C@@H]1CCCCCCC(=O)OCC` [Compound 2], the inhibition at 100 µM in series [2] (setting [7]) was 51.9%. For the same molecule, the “onset” value in series [2] was “does not take effect immediately”.
